Where two headings read alike, the source gives them in different places.
Settings: for dose-limiting toxicity (DLT): cohort of n=6 evaluable patients
Procedure: Overall Study Design: The study consisted of two parts, each evaluating the safety and tolerability of AZD6738 when given in combination with paclitaxel. An oral formulation of AZD6738 was used. The first part (Part A) was in combination with paclitaxel; the starting dose of 40 mg AZD6738 OD was escalated to reach a maximum tolerated dose in patients with advanced solid malignancies, as defined by dose-limiting toxicity. […] We made the number and doses of these cohorts flexible so that we could make adjustment as the PK data emerged. […] Dose escalations were conducted in each cohort independently; however, number and doses of the cohorts were to be subject to change as the PK data emerged.
Part A: We conducted a phase I trial for determining maximal tolerate dose (MTD) of AZD6738 when given in combination with fixed dose of paclitaxel in patients with refractory cancer. We used a rolling 6 design in this PART A. Treatment schedule was as follows. Start regimen (every 4 weeks): 40 mg OD dosing of AZD6738, 3 weeks on/ 1 week off; paclitaxel 80 mg/m2 on day 1, 8, 15 This part was in combination with paclitaxel of standard dose; starting dose of 40 mg AZD6738 OD was escalated to reach a maximum tolerated dose in metastatic solid cancer patients. Each cycle was composed of 4 weeks. The decision to dose escalate was to be made upon the assessment of the safety and tolerability data collected up until the time of study drug administration on Cycle 2, Day 1. This DLT assessment period was selected as the major toxicities leading to cessation of dose escalation in such studies (haematological, gastrointestinal, liver enzymes) were anticipated to present within this duration. Doses and/or schedules of AZD6738 were to be defined by the SRC. The cohort size of at least 3 and up to 6 patients (‘rolling six design’) was employed to improve the rate of accrual of patients to cohorts close to the presumed therapeutic dose by reducing the need for late replacement of patients who become non-evaluable during the DLT assessment period, whilst not compromising collection of safety data. […]

Structure (SMILES): C[C@@H]1COCCN1c1cc(C2([S@](C)(=N)=O)CC2)nc(-c2cc[nH]c3nccc2-3)n1 [AZD6738, 4-{4-[(3R)-3-methylmorpholin-4-yl]-6-[1-((R)-S-methylsulfonimidoyl)cyclopropyl]pyrimidin-2-yl}-1H-pyrrolo[2,3-b]pyridine]
- dose-limiting toxicity (DLT) (AZD6738 160 mg BD days 1-14 with paclitaxel): One dose-limiting toxicity (DLT) of neutropenic fever
- dose-limiting toxicity (DLT) (AZD6738 240 mg BD days 1-14 with paclitaxel): One dose-limiting toxicity (DLT) of neutropenic fever
- maximum tolerated dose of AZD6738 (days 1-14 of 28-day cycle, with paclitaxel 80 mg/m2, per protocol): 240 mg BID

From patent US20230346791A1, “ATR INHIBITORS FOR THE TREATMENT OF CANCER” (AstraZeneca AB, priority 2020, published 2023)
